Results on eleven molecules are retold here after ChEMBL document CHEMBL1201862, “PubChem BioAssay data set” (2004).

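The compound was tested at five concentrations on cells cultured in 96-well plates, with a 48-hour exposure period. Abbreviation: GI50, concentration required for 50% inhibition of growth.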 Activity calls are given as the source filed them. No stated cut-off is given here; in the data, active = GI50 up to about 1.1 µM and inactive = higher.

Among the test systems are EKVX; HL-60; MDA-MB-231; MDA-N; MOLT-4; Malme-3M; NCI-H23; NCI/ADR-RES; OVCAR-8; RPMI-8226; SF-295; SK-MEL-28; SK-MEL-2; SNB-19; SNB-75; SR; UACC-62; NCI-H522; RXF 393; NCI-H226.
Assay in all cases: growth of human tumour cells (NCI), 48 h

`CCOC(=O)NC(C(=O)OCC)C(F)(F)F` (centres undefined): the GI50 was > 100 µM (inactive) in the test with EKVX; 23.9 µM (inactive) with HL-60; > 100 µM (inactive) with MDA-MB-231; > 100 µM (inactive) in the test with MDA-N; 93.8 µM (inactive) in the test with MOLT-4; > 100 µM (inactive) in the test on Malme-3M. In addition, the GI50 was > 100 µM (inactive) in the test with NCI-H23; > 100 µM (inactive) with NCI/ADR-RES; > 100 µM (inactive) in the test with OVCAR-8; 57 µM (inactive) in the test on RPMI-8226; > 100 µM (inactive) in the test with SF-295; > 100 µM (inactive) with SK-MEL-28. In addition, the GI50 in the test with SK-MEL-2 is > 100 µM (inactive); with SNB-19, > 100 µM (inactive); in the test on SNB-75, > 100 µM (inactive); in the test on SR it was 48.4 µM (inactive); with UACC-62, > 10 µM (inactive).
Turning to `O=c1oc2ccc(Cl)cc2cc1-c1cn2ccsc2n1`, the GI50 in the test on EKVX was 26.6 µM (inactive); in the test with HL-60 it was 32.3 µM (inactive); in the test with MDA-MB-231, 24.6 µM (inactive); with MDA-N, 46 µM (inactive); with MOLT-4 it was 24.4 µM (inactive); in the test on Malme-3M, > 100 µM (inactive). Further, the GI50 with NCI-H23 is 51.9 µM (inactive); in the test on NCI-H522, 21 µM (inactive); in the test on NCI/ADR-RES it was 61.1 µM (inactive); in the test on OVCAR-8, 29.4 µM (inactive); in the test with RPMI-8226, 41.5 µM (inactive); with RXF 393, 45.8 µM (inactive). In addition, the GI50 is 29.2 µM (inactive) in the test on SF-295; > 100 µM (inactive) in the test on SK-MEL-28; 50.6 µM (inactive) in the test on SK-MEL-2; 51.9 µM (inactive) with SNB-19; > 100 µM (inactive) with SNB-75; 24.8 µM (inactive) in the test with SR. Further, in the test on UACC-62, the GI50 is 34.3 µM (inactive).
Take `O=c1cc(NNc2ccc(F)cc2)[nH]c(=O)[nH]1`: the GI50 in the test with EKVX was 18.3 µM (inactive); in the test with HL-60 it was 6.65 µM (inactive); with MDA-MB-231 it was 17.1 µM (inactive); with MDA-N, 16.4 µM (inactive); in the test with MOLT-4, 19.8 µM (inactive); with Malme-3M, 19.8 µM (inactive). In addition, the GI50 is 24.6 µM (inactive) with NCI-H226; 29.4 µM (inactive) with NCI-H23; 28.2 µM (inactive) in the test on NCI/ADR-RES; 23.1 µM (inactive) in the test with OVCAR-8; 11 µM (inactive) with RPMI-8226; 15.5 µM (inactive) in the test with RXF 393. Moreover, the GI50 was > 100 µM (inactive) in the test with SF-295; 18.3 µM (inactive) in the test on SK-MEL-28; 21.4 µM (inactive) in the test with SK-MEL-2; 19.3 µM (inactive) with SNB-19; 12.7 µM (inactive) in the test on SNB-75; 35.1 µM (inactive) in the test on SR. In the test with UACC-62, the GI50 is 15.1 µM (inactive).
As to `COI1NC(=O)c2ccccc21`, the GI50 with EKVX, with HL-60, with MDA-MB-231, in the test on MDA-N, with MOLT-4 and in the test with Malme-3M was > 100 µM (inactive) in each case. Also, the GI50 in the test with NCI-H226 was > 100 µM (inactive); with NCI-H23 it was > 100 µM (inactive); in the test with NCI-H522, 74 µM (inactive); in the test with NCI/ADR-RES, > 100 µM (inactive); in the test with OVCAR-8 it was > 100 µM (inactive); with RPMI-8226, > 100 µM (inactive). For the same molecule, the GI50 in the test on SF-295, in the test with SK-MEL-28, with SK-MEL-2, in the test with SNB-19, in the test on SNB-75 and in the test with SR was > 100 µM (inactive) in each case. Besides, the GI50 in the test with UACC-62 was > 100 µM (inactive).
With `OCCN(C1=NCCN1)/[N+](=C/c1ccccc1O)[CH-]c1ccccc1O`, the GI50 in the test on EKVX, with HL-60, with MDA-MB-231, with MDA-N, in the test on MOLT-4 and in the test on Malme-3M was > 100 µM (inactive) throughout. Moreover, the GI50 with NCI-H226 was 28.6 µM (inactive); in the test on NCI-H23, > 100 µM (inactive); with NCI-H522 it was > 100 µM (inactive); with NCI/ADR-RES, 83.6 µM (inactive); in the test with OVCAR-8 it was > 100 µM (inactive); with RPMI-8226, > 100 µM (inactive). Also, the GI50 in the test on SF-295, with SK-MEL-2, in the test with SNB-19, with SNB-75, in the test with SR and in the test on UACC-62 was > 100 µM (inactive) throughout.
Consider `CCCCn1c2c(n(CCCC)c1=S)-c1c(n(CCCC)c(=S)n1CCCC)S[Se][Se]S2`, for which the GI50 with EKVX is 6.01 µM (inactive); in the test with MDA-MB-231, 2.33 µM (inactive); in the test with MDA-N, 8.83 µM (inactive); in the test on MOLT-4, 2.87 µM (inactive); in the test on Malme-3M, 0.625 µM (active); in the test on NCI-H226, 14.6 µM (inactive). Further, the GI50 with NCI-H23 is 13.2 µM (inactive); with NCI-H522 it was 0.171 µM (active); in the test on NCI/ADR-RES it was 21.1 µM (inactive); in the test with OVCAR-8, 4.16 µM (inactive); in the test with RPMI-8226, 2.49 µM (inactive); in the test with RXF 393 it was 3.96 µM (inactive). The GI50 with SF-295 is 3.51 µM (inactive); with SK-MEL-28, 16.6 µM (inactive); with SK-MEL-2, 8.75 µM (inactive); with SNB-19 it was 5.42 µM (inactive); with SNB-75, 5.13 µM (inactive); with SR, 5.19 µM (inactive). In addition, in the test on UACC-62, the GI50 was 5.58 µM (inactive).
Take `Cc1ccc(OCC2OC(n3cnc4c(Cl)nc(Cl)nc43)CC2Oc2ccc(C)cc2)cc1` (centres undefined): the GI50 in the test with EKVX was 3.52 µM (inactive); with HL-60, 2.36 µM (inactive); with MDA-MB-231, 2.08 µM (inactive); in the test with MDA-N it was 1.93 µM (inactive); with MOLT-4, 1.94 µM (inactive); with Malme-3M, 2.18 µM (inactive). Further, the GI50 in the test on NCI-H226 is 3 µM (inactive); in the test on NCI-H23, 1.85 µM (inactive); in the test on NCI-H522, 1.74 µM (inactive); with NCI/ADR-RES, 1.97 µM (inactive); in the test with OVCAR-8, 2.31 µM (inactive); in the test with RPMI-8226 it was 1.23 µM (inactive). In addition, the GI50 with SF-295 was 2.52 µM (inactive); in the test with SK-MEL-28, 2.7 µM (inactive); in the test with SK-MEL-2 it was 2.24 µM (inactive); with SNB-19 it was 1.5 µM (inactive); with SNB-75, 2.52 µM (inactive); with SR, 2.49 µM (inactive). Moreover, the GI50 with UACC-62 is 1.98 µM (inactive).
For the molecule `CC(C)c1c(P(=O)(c2ccccc2)c2ccccc2)n(C)c2ccccc12`, the GI50 is > 100 µM (inactive) in the test with EKVX; 28.1 µM (inactive) in the test on HL-60; > 100 µM (inactive) in the test on MDA-MB-231; 56.1 µM (inactive) in the test on MDA-N; 34.8 µM (inactive) in the test on MOLT-4; > 100 µM (inactive) in the test on Malme-3M. Moreover, the GI50 in the test on NCI-H226 is 52.8 µM (inactive); with NCI-H23, 40.5 µM (inactive); in the test with NCI-H522, 23.4 µM (inactive); in the test on NCI/ADR-RES it was 43.1 µM (inactive); with OVCAR-8 it was 89.9 µM (inactive); in the test on RPMI-8226, 56.6 µM (inactive). In addition, the GI50 in the test on SF-295 is 45.6 µM (inactive); with SK-MEL-28 it was 76.7 µM (inactive); in the test with SK-MEL-2, 88.3 µM (inactive); in the test on SNB-19, 95.9 µM (inactive); with SNB-75 it was 95.3 µM (inactive); with SR it was 49.9 µM (inactive).
As to `COC(=O)C1(CCC(C)=O)CCCCCC1=O` (centres undefined), the GI50 with EKVX, with MDA-MB-231, with MDA-N, in the test with MOLT-4, in the test on Malme-3M and in the test with NCI-H226 was > 100 µM (inactive) in each case. Also, the GI50 in the test with NCI-H23, with NCI-H522, in the test with NCI/ADR-RES, with RPMI-8226, in the test on RXF 393 and in the test with SF-295 was > 100 µM (inactive) throughout. Also, the GI50 in the test with SK-MEL-28, in the test with SK-MEL-2, in the test on SNB-19, in the test on SNB-75, in the test with SR and in the test with UACC-62 was > 100 µM (inactive) each time.
Turning to `CO[P@]1(=O)O[C@@H](c2ccccc2)[C@H](O)[C@@]1(O)c1ccccc1`, the GI50 in the test with EKVX, in the test on HL-60, with MDA-MB-231, in the test on MDA-N, with MOLT-4 and with Malme-3M was > 100 µM (inactive) throughout. Further, the GI50 in the test with NCI-H226, in the test on NCI-H23, in the test with NCI-H522, with NCI/ADR-RES, in the test with OVCAR-8 and in the test with RXF 393 was > 100 µM (inactive) throughout. In addition, the GI50 with SF-295, with SK-MEL-28, with SK-MEL-2, with SNB-19, in the test with SNB-75 and with SR was > 100 µM (inactive) throughout. In the test on UACC-62, the GI50 is > 100 µM (inactive).
Consider `COC(=O)C1=CC(=O)OC1(OO)c1ccc(Br)cc1` (centres undefined), for which the GI50 was > 100 µM (inactive) with EKVX; 40.3 µM (inactive) in the test on HL-60; > 100 µM (inactive) in the test on MDA-MB-231; > 100 µM (inactive) with MDA-N; 31.8 µM (inactive) in the test with MOLT-4; > 100 µM (inactive) with Malme-3M. In addition, the GI50 in the test on NCI-H226, in the test with NCI-H23, in the test on NCI-H522, with NCI/ADR-RES, with OVCAR-8 and with RXF 393 was > 100 µM (inactive) in each case. For the same molecule, the GI50 is > 100 µM (inactive) with SF-295; > 100 µM (inactive) with SK-MEL-28; > 100 µM (inactive) with SK-MEL-2; > 100 µM (inactive) in the test on SNB-19; > 100 µM (inactive) in the test with SNB-75; 55.8 µM (inactive) in the test with SR. Also, the GI50 in the test with UACC-62 was > 100 µM (inactive).
